What was measured:
E. coli K12 5K = experiment: ζ-potential estimate of the maximum number of surface-adsorbed AMPs; type: cell-based, Escherichia coli; details: for fraction of cell associated peptides that do not enter inner compartments: at bacteria inhibition levels of 10%; for NPmax/NB, ratio of surface-adsorbed to cell-partitioned AMPs (upper boundary): at the MIC
Method: DLS and ζ-potential measurements were carried out with a Zetasizer Nano ZSP (Malvern Panalytical, Malvern, UK). E. coli suspensions were incubated with a given AMP concentration at 37°C for 1 h prior to each measurement. […] Control samples (no AMPs) were suspended and incubated in buffer alone. […] Because of the high conductivity of PBS, the electrode voltage was set to 4 V for ζ-potential measurements to keep currents below 1 mA. Further, measurements were paused for 180 s between individual runs. This prevented Joule heating leading to sample denaturation and electrode blackening. Experiments were repeated three times on different preparations, each consisting of at least six measurements. Reported ζ-potential values are given by the median of the corresponding measurements (i.e., from at least 18 values) and errors were derived using the median absolute deviations.
Remembering that ζ-potential values are sensitive only to the charges exposed to the outside of any particle, including bacteria, we can obtain upper boundaries for the number of surface adsorbed peptides. Given the high abundance of lipopolysaccharides (LPS) in the outer leaflet (about 70–90 vol%) of Gram-negative bacteria, as compared to other charged lipid species such as PG and CL (<2 vol%) and membrane proteins (7–20 vol%) ([40]), it is justified to assume that LPS dominates the surface potential of E. coli. Then, following considerations put forth for peptides partitioning in liposomes ([31], [41]), the ratio of ζ-potential values in the presence and absence of AMPs is […]
(9) ζ/ζ0≈σ/σ0≃(S0/S)∑iNizi+NPzP/NLPS0zLPS, where (σ, σ0) and (S, S0) are the corresponding surface charge densities and cell surface areas, respectively. Further, NLPS0 is the initial number of LPS molecules in the outer leaflet, with a nominal charge zLPS ≃ −6 ([42]); NP is the number of surface adsorbed AMPs of nominal charge zP ≃ +5 ([20]); and ∑iNizi=NLPSzLPS+NPGzPG+NCLzCL considers anionic lipids that translocate into the outer leaflet due to AMP activity ([3], [6], [18]). This term also accounts for a possible loss of LPS molecules in the outer leaflet due to vesiculation processes ([25]). Note that Equation (9) is only valid for |ζ| ≤ 25 mV, in which range ζ ∝ σ ([43]). […] Rearranging Equation (9) leads to […]
(13) NPmax/NLPS0≈(zLPS/zP)(ζ/ζ0-1), where NPmax is the upper boundary of surface adsorbed peptides. […] For example, using DLS, we measured a hydrodynamic diameter of E. coli K12 2RH = 980 ± 30 nm, from which we calculate S0≃4.5×10^6 nm^2, approximating the bacteria's shape with a cylinder of radius r and length l using RH2≃r^2/2+l^2/12 and r ~ 400 nm ([47]). […]

[1] = ANTS/DPX dye leakage assay and equi-activity partitioning analysis; details: for K (mole fraction partitioning coefficient) / RB ([P]B/[L]) / [P]W (peptide concentration in the water phase): fit of Equation (4), [L] = (1−20) mM, [P] = (0.05−2) mM, HBS
Method: All hydrated samples were equilibrated for 1 h at 40°C followed by 5 freeze-and-thaw cycles using liquid N2 and intermittent vortex-mixing. Large unilamellar vesicles (LUVs) were obtained by 31 extrusions with a handheld mini extruder (Avanti Polar Lipids, Alabaster, AL) using a 100 nm pore diameter polycarbonate filter. Vesicle size and polydispersity were determined via DLS using a Zetasizer NANO ZSP (Malvern Panalytical, Malvern, UK). ANTS/DPX-containing vesicles were separated from free ANTS/DPX by exclusion chromatography using a column filled with SephadexTM G-75 (Amersham Biosciences, Little Chalfont, UK) fine gel swollen in iso-osmotic HBS. Phospholipid concentrations for all samples were determined by phosphate analysis.
Dye leakage experiments were performed combining previously reported protocols ([20], [27]). In brief, the dependencies of ANTS/DPX leakage on lipid and peptide concentration were determined by first incubating lipid vesicles ([L] = 1, 4, 10, and 20 mM) with peptides [[P] = (0.025−2) mM] at 37°C for 1 h using a gently rocking shaker (Eppendorf Thermomixer C, Hamburg, Germany). Similar time protocols were applied previously ([27]) and are justified here based on separate time-resolved leakage experiments (Supplementary Figure 3) and Trp-fluorescence measurements (Figure 3), showing that a quasi steady state has been reached after 1 h. Before measurements, lipid/peptide solutions were diluted with HBS to a lipid concentration of 50 μM, and every measurement was repeated at least twice. Vesicle size was checked after each incubation period using DLS. Samples were excited at λ= 360 nm, and the intensity of the fluorescence emission peak at λ= 530 nm, Ip, was recorded with a slit width of 10 nm for both excitation and emission monochromators. Measurements were performed in quartz cuvettes in 2 ml of the iso-osmotic buffer on a Cary Eclipse Fluorescence Spectrophotometer (Varian/Agilent Technologies, Palo Alto, CA). The percentage of leakage, E%, was calculated according to the relation
(1) E%=Ip-Imin/Imax-Imin,
where Imin is the initial fluorescence without peptide, and Imax is the fluorescence corresponding to 100% leakage determined through the addition of a 1 vol% solution of Triton X-100. The initial, monotonic increase of E% values with increasing [P] was interpolated with a sigmoidal function. This enabled us to obtain peptide and lipid concentrations leading to a specific E% value, which can in turn be used to calculate the partitioning parameters (see section 2.3.1).
(4) [P]=RB[W]/K︸[P]W+RB[L]︸[P]B=RB([W]/K+[L]),

[2] = POPE/POPG LUVs, leakage 10%, 1 h at 37°C
[3] = POPE/POPG LUVs, leakage 15%, 1 h at 37°C
[4] = POPE/POPG/TOCL LUVs, leakage 10%, 1 h at 37°C
[5] = POPE/POPG/TOCL LUVs, leakage 20%, 1 h at 37°C
[6] = POPE/POPG/TOCL LUVs, leakage 40%, 1 h at 37°C

Substance | fraction of cell associated peptides that do not enter inner compartments (E. coli K12 5K) | NPmax/NB, ratio of surface-adsorbed to cell-partitioned AMPs (upper boundary) (E. coli K12 5K) | maximum amount of partitioned AMPs ([1]; PE-containing systems, [L] ≃20 mM) [%] | ANTS/DPX dye efflux, time-resolved ([1]; POPE/POPG LUVs [L] = 50 µM, [P] = 0.5 µM, converging after 25 min) [%] | K (mole fraction partitioning coefficient) [1, 2] | RB ([P]B/[L]) [1, 2] | [P]W (peptide concentration in the water phase) [1, 2] [mM] | K (mole fraction partitioning coefficient) [1, 3] | RB ([P]B/[L]) [1, 3] | [P]W (peptide concentration in the water phase) [1, 3] [mM] | total ANTS/DPX efflux ([1]; POPE/POPG vesicles, 1 h at 37°C, all [P] and [L] tested) [%] | K (mole fraction partitioning coefficient) [1, 4] | RB ([P]B/[L]) [1, 4] | [P]W (peptide concentration in the water phase) [1, 4] [mM] | K (mole fraction partitioning coefficient) [1, 5] | RB ([P]B/[L]) [1, 5] | [P]W (peptide concentration in the water phase) [1, 5] [mM] | K (mole fraction partitioning coefficient) [1, 6] | RB ([P]B/[L]) [1, 6] | [P]W (peptide concentration in the water phase) [1, 6] [mM]
H-PFFWRIRIRR-NH2 [LF11-324, H-PFFWRIRIRR-NH2] | ~ 18% | ~5% |  |  |  |  |  |  |  |  |  |  |  |  |  |  |  |  |  | 
H-FWRIRIRR-NH2 [LF11-215, H-FWRIRIRR-NH2] | ~ 5% | about 1% | < 80 | ~5 | 1.37 ± 0.16 ×10^4 | 9.8 ± 0.4 ×10^−3 | 0.040 ± 0.006 | 0.75 ± 0.15 ×10^4 | 10.7 ± 1.0 ×10^−3 | 0.08 ± 0.02 | ≤ 40 | 1.7 ± 0.8 ×10^4 | 5.6 ± 0.7 ×10^−3 | 0.018 ± 0.010 | 1.5 ± 0.3 ×10^4 | 7.2 ± 0.5 ×10^−3 | 0.026 ± 0.007 | 1.5 ± 0.4 ×10^4 | 9.6 ± 0.9 ×10^−3 | 0.036 ± 0.012

Source: paper PMC8757871, “Bridging the Antimicrobial Activity of Two Lactoferricin Derivatives in E. coli and Lipid-Only Membranes” (Frontiers in Medical Technology, 2021)
